Results: patent publication US8865734B2 (priority 2010, dated 2014)
In brackets after ≈: the same amount, converted by molar mass. Counter-ions that a name gives are not always drawn.

What was measured:
M. tuberculosis H37Rv = assay: In vivo activity in a murine model of acute tuberculosis infection; parameters: species or system BalbC mice; conditions: 4 weeks of treatment
Procedure: The effect of compounds 177 and 185 on the bacterial load of TB-infected mice was compared to that of the reference compound Isoniazid (INH). 8-week old female BalbC mice were infected with 6×10^5 M. tuberculosis H37Rv via intranasal instillation. Mice were sacrificed at day 1 to control the number of CFU in the lungs. In the acute model of infection, mice were treated for 4 weeks, starting at day 1. Compounds were freshly dissolved in a 0.5% methylcellulose solution and administered by oral gavage 5 times/week. Bacterial load was assessed in lungs and spleen after homogenizing the organs in 1×PBS. Serial dilutions of organs homogenates were spread on Middlebrook 7H11 plates and CFU were determined after 3 weeks incubation at 37° C. under 5% CO2.

[1] = test system: Mycobacterium tuberculosis H37Rv; assay: Kinetics of inhibition and bactericidal activity (CFU plating); type: cell-based; conditions: for colony forming unit (CFU) number (bactericidal activity): after incubation with various concentrations; for growth inhibition: reached around the same time as PA-824, 14 day period
Procedure: Mycobacterium tuberculosis H37Rv was incubated at an initial inoculum of 2×10^6 bacteria/ml in Middlebrook 7H9 media containing an increasing concentration of representative compound 47 or 54. Culture samples were collected over a 14 day period. Serial dilutions of the bacterial suspension were performed and plated on 7H 10 medium. Colonies were counted for the different dilutions after 3 weeks incubation at 37° C. under 5% CO2 and compared to that obtained for the DMSO negative and PA-824 positive controls. PA-824 (Stover et al., 2000) is a TB Alliance small chemical compound currently in phase II clinical trials for the treatment of tuberculosis. PA-824 possibly acts via generation of radicals having non-specific toxic effects.

[2] = test system: M. tuberculosis inside the host macrophage; assay: QIM: Quantification of Intracellular Mycobacteria (intracellular growth assay, phenotypic cell-based); conditions: Mycobacterium tuberculosis; MIC, 80% bacterial growth inhibition; intracellular growth; read-out: QIM
Procedure, shortened: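 Dose-response testing of intracellular mycobacterial replication in infected macrophages, a cell-based screening format; MIC is defined as the lowest concentration achieving 80% inhibition of bacterial growth.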

[3] = test system: M. tuberculosis drug sensitive strain (lab strain H37Rv); assay: MIC by the Alamar blue method, drug sensitive strain; type: cell-based; conditions: Mycobacterium tuberculosis
[4] = test system: in vitro grown Mycobacteria (M. tuberculosis); assay: QUM: Quantification of in vitro grown Mycobacteria (in vitro growth fluorescence assay); type: cell-based; conditions: Mycobacterium tuberculosis; MIC, 80% bacterial growth inhibition; in vitro growth; read-out: QUM
Procedure, shortened: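 Mycobacterium tuberculosis grown in vitro was quantified by fluorescence across compound dose responses. MIC is defined as the minimum concentration producing 80% growth inhibition.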

Row | SMILES | MIC [2] [µM] | MIC [4] [µM] | melting point [°C] | also measured
1 | CCc1nc2cc(Cl)ccn2c1C(=O)NCc1ccc(N2CCN(c3ccc(F)cc3)CC2)cc1 [Compound 177, 7-Chloro-2-ethyl-N-(4-(4-(4-fluorophenyl)piperazin-1-yl)benzyl)imidazo[1,2-a]pyridine-3-carboxamide trihydrochloride] | – | – | – | CFU in the spleen (M. tuberculosis H37Rv; 50 mg/kg orally): No CFU were detected; reduction of CFU in the lungs compared to untreated mice (M. tuberculosis H37Rv; 50 mg/kg orally): ~2 log CFU
2 | CCc1nc2ccccn2c1C(=O)NCc1ccc(Oc2ccccc2)cc1 [Compound 54, 2-Ethyl-N-(4-phenoxybenzyl)imidazo[1,2-a]pyridine-3-carboxamide] | < 1 | < 1 | – | colony forming unit (CFU) number (bactericidal activity) [1]: decrease; growth inhibition [1]: 100%; MIC80 [3]: 0.625 µM (≈ 0.232 µg/mL)
3 | COc1c(N2C[C@@H]3CCCN[C@@H]3C2)c(F)cc2c(=O)c(C(=O)O)cn(C3CC3)c12 [MFX, moxifloxacin, reference compound] | – | – | – | MIC80 [3]: 1.25 µM (≈ 0.502 µg/mL)
4 | CCc1nc2ccc(Cl)cn2c1C(=O)NCc1ccc(Oc2ccc(OC(F)(F)F)cc2)cc1 [Compound 185, 6-Chloro-2-ethyl-N-(4-(4-(trifluoromethoxy)phenoxy)benzyl)imidazo[1,2-a]pyridine-3-carboxamide] | < 1 | < 1 | – | CFU in the spleen (M. tuberculosis H37Rv; 50 mg/kg orally): No CFU were detected; reduction of CFU in the lungs compared to untreated mice (M. tuberculosis H37Rv; 50 mg/kg orally): ~2 log CFU
5 | CCc1nc2ccccn2c1C(=O)NCc1ccc(-c2ccccc2)cc1 [Compound 47, N-(Biphenyl-4-ylmethyl)-2-ethylimidazo[1,2-a]pyridine-3-carboxamide] | < 1 | < 1 | – | colony forming unit (CFU) number (bactericidal activity) [1]: decrease; growth inhibition [1]: 100%; MIC80 [3]: 1.25 µM (≈ 0.444 µg/mL)
6 | CCc1nc2cc(Cl)ccn2c1C(=O)NCc1ccc(NCc2ccc(OC(F)(F)F)cc2)cc1 [Compound 262] | < 1 | < 1 | 169.6 | –
7 | CCc1nc2ccc(Cl)cn2c1C(=O)NCC1CCN(Cc2ccc(F)cc2)CC1 [Compound 227, 6-Chloro-2-ethyl-N-((1-(4-fluorobenzyl)piperidin-4-yl)methyl)imidazo[1,2-a]pyridine-3-carboxamide] | < 1 | 1 to 20 (≈ 0.429 to 8.58 µg/mL) | 176 to 177 | –
8 | CCc1nc2ccc(Cl)cn2c1C(=O)NCc1ccc(Oc2ccc(OC(F)(F)F)cc2)nc1 [Compound 194, 6-Chloro-2-ethyl-N-((6-(4-(trifluoromethoxy)phenoxy)pyridin-3-yl)methyl)imidazo[1,2-a]pyridine-3-carboxamide] | < 1 | 1 to 20 (≈ 0.491 to 9.82 µg/mL) | 154 to 155 | –
9 | CCc1nc2ccc(Br)cn2c1C(=O)NCc1ccc(N2CCN(c3ccc(F)cc3)CC2)cc1 [Compound 307, 6-Bromo-2-ethyl-N-(4-(4-(4-fluorophenyl)piperazin-1-yl)benzyl)imidazo[1,2-a]pyridine-3-carboxamide] | < 1 | < 1 | 218.1 | –
10 | CCc1nc2ccc(Br)cn2c1C(=O)NCc1ccc(N2CCOCC2)cc1 [Compound 315, 6-Bromo-2-ethyl-N-(4-morpholinobenzyl)imidazo[1,2-a]pyridine-3-carboxamide] | < 1 | < 1 | 228.2 | –
11 | NNC(=O)c1ccncc1 [INH, Isoniazid, reference compound] | – | – | – | CFU in the lungs (M. tuberculosis H37Rv; 25 mg/kg): No CFU were recovered; CFU in the spleen (M. tuberculosis H37Rv; 25 mg/kg): No CFU were recovered; MIC80 [3]: 1.25 µM (≈ 0.171 µg/mL)
12 | CCc1nc2ccc(Cl)cn2c1C(=O)NCc1ccc(N2CC(C)CC(C)C2)cc1 (centres unmarked) [Compound 216, 6-Chloro-N-(4-(3,5-dimethylpiperidin-1-yl)benzyl)-2-ethylimidazo[1,2-a]pyridine-3-carboxamide] | < 1 | < 1 | 157.2 to 158 | –
13 | CCc1nc2cc(Cl)ccn2c1C(=O)NCc1ccc(N2C=CC(=O)CC2)cc1 [Compound 270, 7-Chloro-2-ethyl-N-(4-(4-oxo-3,4-dihydropyridin-1(2H)-yl)benzyl)imidazo[1,2-a]pyridine-3-carboxamide] | > 20 | > 20 | 201.3 to 202.8 | –
14 | CCc1nc2cc(Cl)ccn2c1C(=O)NCc1ccc(N2CCN(Cc3ccc(F)cc3)CC2)cc1 [Compound 172, 7-Chloro-2-ethyl-N-(4-(4-(4-fluorobenzyl)piperazin-1-yl)benzyl)imidazo[1,2-a]pyridine-3-carboxamide] | < 1 | < 1 | 141 to 142 | –
15 | CCc1nc2c(F)cccn2c1C(=O)NCc1ccc(N2CCN(c3ccc(F)cc3)CC2)cc1 [Compound 310, 2-Ethyl-8-fluoro-N-(4-(4-(4-fluorophenyl)piperazin-1-yl)benzyl)imidazo[1,2-a]pyridine-3-carboxamide] | < 1 | < 1 | 204.1 | –
16 | CCc1nc2ccc(Cl)cn2c1C(=O)NCCc1ccc(OC)cc1 [Compound 157, 6-Chloro-2-ethyl-N-(4-methoxyphenethyl)imidazo[1,2-a]pyridine-3-carboxamide] | < 1 | < 1 | 129 to 130 | –
17 | CCc1nc2cc(C)ccn2c1C(=O)NCc1ccc(N2CCOCC2)cc1 [Compound 68, 2-Ethyl-7-methyl-N-(4-morpholinobenzyl)imidazo[1,2-a]pyridine-3-carboxamide] | < 1 | 1 to 20 (≈ 0.378 to 7.57 µg/mL) | 190 | –
18 | CCc1nc2cc(Br)ccn2c1C(=O)NCc1ccc(N2CCN(c3ccc(F)cc3)CC2)cc1 [Compound 311, 7-Bromo-2-ethyl-N-(4-(4-(4-fluorophenyl)piperazin-1-yl)benzyl)imidazo[1,2-a]pyridine-3-carboxamide] | < 1 | < 1 | 214.6 | –
19 | CCc1nc2ccc(Cl)cn2c1C(=O)NCC1CCN(Cc2ccc(OC(F)(F)F)cc2)CC1 [Compound 226, 6-Chloro-2-ethyl-N-((1-(4-(trifluoromethoxy)benzyl)piperidin-4-yl)methyl)imidazo[1,2-a]pyridine-3-carboxamide] | < 1 | < 1 | 171 to 172 | –
20 | CCc1nc2ccc(Cl)cn2c1COc1ccc(OC(F)(F)F)cc1 [Compound 239, 6-Chloro-2-ethyl-3-((4-(trifluoromethoxy)phenoxy)methyl)imidazo[1,2-a]pyridine] | > 20 | > 20 | 127 to 128 | –
21 | CCc1nc2ccc(Cl)cn2c1C(=O)NCc1ccc(N2CCC(c3ccc(F)cc3)CC2)cc1 [Compound 286, 6-Chloro-2-ethyl-N-(4-(4-(4-fluorophenyl)piperidin-1-yl)benzyl)imidazo[1,2-a]pyridine-3-carboxamide] | < 1 | < 1 | 164 | –
22 | CCc1nc2cc(Cl)ccn2c1C(=O)NCc1ccc(Oc2ccc(F)cc2)nc1 [Compound 193, 7-Chloro-2-ethyl-N-((6-(4-fluorophenoxy)pyridin-3-yl)methyl)imidazo[1,2-a]pyridine-3-carboxamide] | < 1 | < 1 | 167 to 167.6 | –
23 | CCc1nc2ccc(Cl)cn2c1C(=O)NCc1ccc(Oc2ccc(F)cc2)cc1 [Compound 187, 6-Chloro-2-ethyl-N-(4-(4-fluorophenoxy)benzyl)imidazo[1,2-a]pyridine-3-carboxamide] | < 1 | < 1 | 168 to 169 | –
24 | CCc1nc2ccc(Cl)cn2c1C(=O)NCc1ccc(N2CCC(COc3ccc(F)cc3)CC2)cc1 [Compound 296, 6-Chloro-2-ethyl-N-(4-(4-((4-fluorophenoxy)methyl)piperidin-1-yl)benzyl)imidazo[1,2-a]pyridine-3-carboxamide] | < 1 | < 1 | 171 | –
25 | CCc1nc2ccc(Cl)cn2c1C(=O)N(C)Cc1ccc(N2CCN(c3ccc(F)cc3)CC2)cc1 [Compound 182, 6-Chloro-2-ethyl-N-(4-(4-(4-fluorophenyl)piperazin-1-yl)benzyl)-N-methylimidazo[1,2-a]pyridine-3-carboxamide] | 1 to 20 (≈ 0.506 to 10.1 µg/mL) | < 1 | 148 to 149 | –
26 | CCc1nc2cc(-c3ccncc3)ccn2c1C(=O)NCc1ccc(N2CCOCC2)cc1 [Compound 325, 2-Ethyl-N-(4-morpholinobenzyl)-7-(pyridin-4-yl)imidazo[1,2-a]pyridine-3-carboxamide] | > 20 | > 20 | 210.1 | –
